The assay concerns the target His-tagged CD38 (Homo sapiens, UniProt P28907). As to the kind of experiment: SPR assay (Biacore S200, Sensor Chip NTA, single-cycle kinetics) of SEQ ID NO.1 variants against His-tagged CD38. It is filed as binding. Conditions: for kon / koff: SPR Biacore S200, NTA chip, His-tagged CD38; for kon: read-out: Ka (association rate constant); for koff: read-out: Kd (dissociation rate constant); for Kd: SPR Biacore S200, His-tagged CD38, calculated from ka and kd. Here is the method:
SPR assay was performed using Biacore S200 (Cytiva: Former GE Healthcare).
After the equilibration of Series S Sensor Chip NTA (produced by Cytiva: Former GE Healthcare) with Running Buffer (10 mM HEPES pH7.4, 150 mM NaCl, 0.05% Tween 20), followed by injection of 350 mM EDTA at a flow rate of 10 L/min for 60 seconds and […] NiCl2 at a flow rate of 10 L/min for 60 seconds, then 3 mM EDTA at a flow rate of 10 L/min for 120 seconds, sequently, to wash the sensor chip.
EDC/NHS mixture was injected at a flow rate of […] for 7 minutes to thereby activate the functional groups on sensor chip. His-tagged CD38 in Running Buffer (10 mM HEPES pH7.4, 150 mM NaCl, 0.05% Tween 20) was injected immobilized to at a flow rate of […]. For 7 minutes to immobilize the CD38 on the substrate surfaces of the sensor chip. Then Ethanolamine was injected at a flow rate of […] for 7 minutes.
1.0 M Ethanolamine(aq.) was injected at a flow rate of 10 L/min for 420 seconds for capping. 10 mM peptides (which were synthesised described above) in DMSO were diluted to obtain 10 uM with Running Buffer, and prepared 100 nM, 50 nM, 25 nM, 10 nM, 5 nM of each peptide's solutions (Peptide Samples).
Using these Peptide Samples, kinetics of peptides against His-tagged CD38 was measured. The method adopted for sample measurement was a single-cycle kinetics method. The analysis was conducted using the evaluation software 1.1 provided with Biacore S200. A DMSO correction curve obtained by solvent correction measurements was applied for the analysis. Kinetics fitting was done on the difference data obtained by subtracting the baseline data from sample measurement data.
KD values were calculated based on the association rate constant (ka) and dissociation rate constant (kd).

Results on 13 compounds are retold here after patent publication US20250263440A1, “CD38-BINDING AGENTS AND USES THEREOF” (PeptiDream Inc., priority 2019, published 2025).

Starred links: 1 amine or outer side, 2 acyl side, 3 side chain; linkers in the order of their positions; H or OH if unused. Positions of bridges follow the written chain, without caps; N, C: chain ends. Non-standard residues stand in square brackets, D forms with d. Residues, ends and D or L forms follow the SMILES beside them. *: point of attachment. Trp(6-aza) = N[C@@H](Cc1c[nH]c2cnccc12)C(=O)O; Bip = N[C@@H](Cc1ccc(-c2ccccc2)cc1)C(=O)O; Arg(Me2a) = CN(C)C(=N)NCCC[C@H](N)C(=O)O; Nle(6-Ph) = N[C@@H](CCCCc1ccccc1)C(=O)O; X3 = CCCCCCCCC[C@H](N[*:1])C(=O)[*:2]; Met(O2) = CS(=O)(=O)CC[C@H](N)C(=O)O; X4 = CCCCCCC[C@H](N[*:1])C(=O)[*:2]; hhPhe = N[C@@H](CCCc1ccccc1)C(=O)O; hArg = N=C(N)NCCCC[C@H](N)C(=O)O; hCit = NC(=O)NCCCC[C@H](N)C(=O)O; Ahp(2) = CCCCC[C@H](N)C(=O)O; hSer = N[C@@H](CCO)C(=O)O; X1 = COCCOCCOCCOCCC(=O)*

As to `CCCCCCC[C@@H]1NC(=O)[C@H](Cc2ccc(-c3ccccc3)cc2)NC(=O)[C@H](CC(C)C)NC(=O)[C@H](C(C)C)NC(=O)[C@H](CCC(=O)O)NC(=O)[C@H](CC(=O)O)NC(=O)[C@H](Cc2c[nH]cn2)NC(=O)[C@H](Cc2ccc(O)cc2)NC(=O)[C@H](CCCCC)NC(=O)[C@H](CCCNC(=N)N)NC(=O)[C@H](C)NC(=O)CSC[C@@H](C(N)=O)NC(=O)[C@H](CC(=O)O)NC1=O` [compound 23] ({CH2CO}-AR[Ahp(2)]YHDEVL[Bip][X4]DC-NH2; thioether N-13), the kon amounted to 820000 M⁻¹ s⁻¹ and the koff was 0.0027 s⁻¹.
For `CCCCCCCCC[C@@H]1NC(=O)[C@H](Cc2ccc(-c3ccccc3)cc2)NC(=O)[C@H](CC(C)C)NC(=O)[C@H](C(C)C)NC(=O)[C@H](CCC(=O)O)NC(=O)[C@H](CC(=O)O)NC(=O)[C@H](Cc2c[nH]cn2)NC(=O)[C@H](Cc2ccc(O)cc2)NC(=O)[C@H](CCCCC)NC(=O)[C@H](CCCNC(=N)N)NC(=O)[C@H](C)NC(=O)CSC[C@@H](C(N)=O)NC(=O)[C@H](CC(=O)O)NC1=O` [compound 24] ({CH2CO}-AR[Ahp(2)]YHDEVL[Bip][X3]DC-NH2; thioether N-13 (inferred); N-terminus and C-terminus assumed), in that order: 370000 M⁻¹ s⁻¹ and 0.0013 s⁻¹.
For `CCCCC[C@@H]1NC(=O)[C@H](CCCNC(=N)N)NC(=O)[C@H](C)NC(=O)CSC[C@@H](C(N)=O)NC(=O)[C@H](CC(=O)O)NC(=O)[C@H](CCCc2ccccc2)NC(=O)[C@H](Cc2ccc(-c3ccccc3)cc2)NC(=O)[C@H](CC(C)C)NC(=O)[C@H](C(C)C)NC(=O)[C@H](CCC(=O)O)NC(=O)[C@H](CC(=O)O)NC(=O)[C@H](Cc2c[nH]cn2)NC(=O)[C@H](Cc2ccc(O)cc2)NC1=O` [compound 26] ({CH2CO}-AR[Ahp(2)]YHDEVL[Bip][hhPhe]DC-NH2; thioether N-13), in that order: 1.9e+06 M⁻¹ s⁻¹ and 0.05 s⁻¹.
`CCCCC[C@@H]1NC(=O)[C@H](CCCNC(=N)N)NC(=O)[C@H](C)NC(=O)CSC[C@@H](C(N)=O)NC(=O)[C@H](CC(=O)O)NC(=O)[C@H](CCCCC)NC(=O)[C@H](Cc2ccc(-c3ccccc3)cc2)NC(=O)[C@H](CCS(C)(=O)=O)NC(=O)[C@H](C(C)C)NC(=O)[C@H](CCCNC(=N)N)NC(=O)[C@H](CC(=O)O)NC(=O)[C@H](Cc2c[nH]cn2)NC(=O)[C@H](Cc2ccc(O)cc2)NC1=O` [compound 15] ({CH2CO}-AR[Ahp(2)]YHDRV[Met(O2)][Bip][Ahp(2)]DC-NH2; thioether N-13): the Kd was 9.42 nM, the kon worked out at 1.4e+06 M⁻¹ s⁻¹ and the koff was determined as 0.013 s⁻¹.
For `CCCCC[C@@H]1NC(=O)[C@H](CCCNC(=N)N)NC(=O)[C@H](C)NC(=O)CSC[C@@H](C(N)=O)NC(=O)[C@H](CC(=O)O)NC(=O)[C@H](CCCCC)NC(=O)[C@H](Cc2ccc(-c3ccccc3)cc2)NC(=O)[C@H](CC(C)C)NC(=O)[C@H](C(C)C)NC(=O)[C@H](CCS(C)(=O)=O)NC(=O)[C@H](CC(=O)O)NC(=O)[C@H](Cc2c[nH]cn2)NC(=O)[C@H](Cc2ccc(O)cc2)NC1=O` [compound 6] ({CH2CO}-AR[Ahp(2)]YHD[Met(O2)]VL[Bip][Ahp(2)]DC-NH2; thioether N-13), in that order: 2.94 nM, 631000 M⁻¹ s⁻¹ and 0.00186 s⁻¹.
In the case of `CCCCC[C@@H]1NC(=O)[C@H](CCCNC(=N)N)NC(=O)[C@H](C)NC(=O)CSC[C@@H](C(N)=O)NC(=O)[C@H](CC(=O)O)NC(=O)[C@H](CCCCC)NC(=O)[C@H](Cc2ccc(-c3ccccc3)cc2)NC(=O)[C@H](CC(C)C)NC(=O)[C@H](C(C)C)NC(=O)[C@H](CCC(=O)O)NC(=O)[C@H](CC(=O)O)NC(=O)[C@H](Cc2c[nH]c3cnccc23)NC(=O)[C@H](Cc2ccc(O)cc2)NC1=O` [compound 22] ({CH2CO}-AR[Ahp(2)]Y[Trp(6-aza)]DEVL[Bip][Ahp(2)]DC-NH2; thioether N-13), the Kd was 10.9 nM, the kon came to 790000 M⁻¹ s⁻¹ and the koff came to 0.0087 s⁻¹.
For the compound `CCCCC[C@@H]1NC(=O)[C@H](CCCNC(=N)N)NC(=O)[C@H](C)NC(=O)CSC[C@@H](C(N)=O)NC(=O)[C@H](CC(=O)O)NC(=O)[C@H](CCCCC)NC(=O)[C@H](Cc2ccc(-c3ccccc3)cc2)NC(=O)[C@H](CC(C)C)NC(=O)[C@H](C(C)C)NC(=O)[C@H](CCC(=O)O)NC(=O)[C@H](CC(=O)O)NC(=O)[C@H](Cc2c[nH]cn2)NC(=O)[C@H](Cc2ccc(O)cc2)NC1=O` [compound 10] ({CH2CO}-AR[Ahp(2)]YHDEVL[Bip][Ahp(2)]DC-NH2; thioether N-13 (inferred); N-terminus and C-terminus assumed), the kon turned out to be 471000 M⁻¹ s⁻¹ and the koff was 0.00223 s⁻¹.
Take `CCCCC[C@@H]1NC(=O)[C@H](CCCCNC(=O)CCOCCOCCOCCOC)NC(=O)[C@H](C)NC(=O)CSC[C@@H](C(N)=O)NC(=O)[C@H](CC(=O)O)NC(=O)[C@H](CCCCC)NC(=O)[C@H](Cc2ccc(-c3ccccc3)cc2)NC(=O)[C@H](CC(C)C)NC(=O)[C@H](C(C)C)NC(=O)[C@H](CCC(=O)O)NC(=O)[C@H](CC(=O)O)NC(=O)[C@H](Cc2c[nH]cn2)NC(=O)[C@H](Cc2ccc(O)cc2)NC1=O` [compound 18] ({CH2CO}-AK(X1)[Ahp(2)]YHDEVL[Bip][Ahp(2)]DC-NH2; thioether N-13): the Kd was 27.7 nM, the kon came out at 220000 M⁻¹ s⁻¹ and the koff was determined as 0.006 s⁻¹.
On to `CCCCC[C@@H]1NC(=O)[C@H](CCCCNC(N)=O)NC(=O)[C@H](C)NC(=O)CSC[C@@H](C(N)=O)NC(=O)[C@H](CC(=O)O)NC(=O)[C@H](CCCCc2ccccc2)NC(=O)[C@H](Cc2ccc(-c3ccccc3)cc2)NC(=O)[C@H](CC(C)C)NC(=O)[C@H](C(C)C)NC(=O)[C@H](CCC(=O)O)NC(=O)[C@H](CC(=O)O)NC(=O)[C@H](Cc2c[nH]cn2)NC(=O)[C@H](Cc2ccc(O)cc2)NC1=O` [compound 33] ({CH2CO}-A[hCit][Ahp(2)]YHDEVL[Bip][Nle(6-Ph)]DC-NH2; thioether N-13), for which the dissociation constant (Kd) is 6.7 nM, the kon turned out to be 220000 M⁻¹ s⁻¹ and the koff is 0.0015 s⁻¹.
Take `CCCCC[C@@H]1NC(=O)[C@H](Cc2ccc(-c3ccccc3)cc2)NC(=O)[C@H](CC(C)C)NC(=O)[C@H](C(C)C)NC(=O)[C@H](CCC(=O)O)NC(=O)[C@H](CC(=O)O)NC(=O)[C@H](Cc2c[nH]cn2)NC(=O)[C@H](Cc2ccc(O)cc2)NC(=O)[C@H](CCCCNC(=O)CCOCCOCCOCCOC)NC(=O)[C@H](CCCNC(=N)N)NC(=O)[C@H](C)NC(=O)CSC[C@@H](C(N)=O)NC(=O)[C@H](CC(=O)O)NC1=O` [compound 19] ({CH2CO}-ARK(X1)YHDEVL[Bip][Ahp(2)]DC-NH2; thioether N-13): the kon was 160000 M⁻¹ s⁻¹ and the koff turned out to be 0.0012 s⁻¹.
For `CCCCC[C@@H]1NC(=O)[C@H](CCCNC(=N)N(C)C)NC(=O)[C@H](C)NC(=O)CSC[C@@H](C(N)=O)NC(=O)[C@H](CC(=O)O)NC(=O)[C@H](CCCCc2ccccc2)NC(=O)[C@H](Cc2ccc(-c3ccccc3)cc2)NC(=O)[C@H](CC(C)C)NC(=O)[C@H](C(C)C)NC(=O)[C@H](CCC(=O)O)NC(=O)[C@H](CC(=O)O)NC(=O)[C@H](Cc2c[nH]cn2)NC(=O)[C@H](Cc2ccc(O)cc2)NC1=O` [compound 32] ({CH2CO}-A[Arg(Me2a)][Ahp(2)]YHDEVL[Bip][Nle(6-Ph)]DC-NH2; thioether N-13), the Kd was 5.6 nM, the kon was found to be 250000 M⁻¹ s⁻¹ and the koff stood at 0.0014 s⁻¹.
As to `CCCCC[C@@H]1NC(=O)[C@H](CCCNC(=N)N)NC(=O)[C@H](C)NC(=O)CSC[C@@H](C(N)=O)NC(=O)[C@H](CC(=O)O)NC(=O)[C@H](CCCCC)NC(=O)[C@H](Cc2ccc(-c3ccccc3)cc2)NC(=O)[C@H](CC(C)C)NC(=O)[C@H](C(C)C)NC(=O)[C@H](CCCCNC(=N)N)NC(=O)[C@H](CC(=O)O)NC(=O)[C@H](Cc2c[nH]cn2)NC(=O)[C@H](Cc2ccc(O)cc2)NC1=O` [compound 12] ({CH2CO}-AR[Ahp(2)]YHD[hArg]VL[Bip][Ahp(2)]DC-NH2; thioether N-13 (inferred); N-terminus and C-terminus assumed), the kon worked out at 660000 M⁻¹ s⁻¹ and the koff came out at 0.0015 s⁻¹.
With `CCCCC[C@@H]1NC(=O)[C@H](CCCNC(=N)N)NC(=O)[C@H](C)NC(=O)CSC[C@@H](C(N)=O)NC(=O)[C@H](CC(=O)O)NC(=O)[C@H](CCCCC)NC(=O)[C@H](Cc2ccc(-c3ccccc3)cc2)NC(=O)[C@H](CCO)NC(=O)[C@H](C(C)C)NC(=O)CNC(=O)[C@H](CC(=O)O)NC(=O)[C@H](Cc2c[nH]cn2)NC(=O)[C@H](Cc2ccc(O)cc2)NC1=O` [compound 8] ({CH2CO}-AR[Ahp(2)]YHDGV[hSer][Bip][Ahp(2)]DC-NH2; thioether N-13), the Kd was 38.8 nM, the kon is 790000 M⁻¹ s⁻¹ and the koff amounted to 0.0306 s⁻¹.
